Experimental data published in ChEMBL document CHEMBL1201862, “PubChem BioAssay data set” (2004).
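The compound was tested at five concentrations on cells cultured in 96-well plates, with a 48-hour exposure period. Here, GI50 denotes the concentration required for 50% inhibition of growth.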 Activity calls are given as the source filed them. Rule as the data show it: active = GI50 up to about 1.1 µM and inactive = higher.

Key:
Assay in all cases: DTP human tumour cell line panel, 48 h
[1] = system: SW-620
[2] = system: COLO 205
[3] = system: RXF 393
[4] = system: M14
[5] = system: TK-10
[6] = system: IGROV-1
[7] = system: UO-31
[8] = system: 786-0
[9] = system: OVCAR-5
[10] = system: A498
[11] = system: SK-MEL-2
[12] = system: SK-MEL-5
[13] = system: EKVX
[14] = system: UACC-257
[15] = system: RPMI-8226
[16] = system: KM12
[17] = system: CAKI-1
[18] = system: HL-60
[19] = system: NCI-H522
[20] = system: CCRF-CEM
[21] = system: HCC 2998
[22] = system: OVCAR-8
[23] = system: HOP-62
[24] = system: KM-20L2
[25] = system: HT-29
[26] = system: U-251
[27] = system: HOP-92
[28] = system: UACC-62
[29] = system: SNB-19
[30] = system: OVCAR-3
[31] = system: NCI-H460
[32] = system: SF-295
[33] = system: SK-MEL-28
[34] = system: SK-OV-3
[35] = system: K562
[36] = system: HCT-116
[37] = system: SNB-75
[38] = system: MOLT-4
[39] = system: OVCAR-4
[40] = system: LXFL 529
[41] = system: A549
[42] = system: M19-MEL
[43] = system: DLD-1
[44] = system: ACHN
[45] = system: SN12C
[46] = system: SR
[47] = system: LOX IMVI
[48] = system: SF-268
[49] = system: SF-539
[50] = system: DMS-114
[51] = system: DMS-273
[52] = system: SNB-78
[53] = system: NCI-H23
[54] = system: Malme-3M
[55] = system: HOP-18
[56] = system: NCI-H226
[57] = system: HCT-15
[58] = system: MCF7

c1ccncc1
GI50 [1]: > 100 µM (inactive)
GI50 [2]: > 100 µM (inactive)
GI50 [3]: > 100 µM (inactive)
GI50 [4]: > 100 µM (inactive)
GI50 [5]: > 100 µM (inactive)
GI50 [6]: > 100 µM (inactive)
GI50 [7]: > 100 µM (inactive)
GI50 [8]: > 100 µM (inactive)
GI50 [9]: > 100 µM (inactive)
GI50 [10]: > 100 µM (inactive)
GI50 [11]: > 100 µM (inactive)
GI50 [12]: > 100 µM (inactive)
GI50 [13]: > 100 µM (inactive)
GI50 [14]: > 100 µM (inactive)
GI50 [15]: > 100 µM (inactive)
GI50 [16]: > 100 µM (inactive)
GI50 [17]: > 100 µM (inactive)
GI50 [18]: > 100 µM (inactive)
GI50 [19]: > 100 µM (inactive)
GI50 [20]: > 100 µM (inactive)
GI50 [21]: > 100 µM (inactive)
GI50 [22]: > 100 µM (inactive)
GI50 [23]: > 100 µM (inactive)
GI50 [24]: > 100 µM (inactive)
GI50 [25]: > 100 µM (inactive)
GI50 [26]: > 100 µM (inactive)
GI50 [27]: > 100 µM (inactive)
GI50 [28]: > 100 µM (inactive)
GI50 [29]: > 100 µM (inactive)
GI50 [30]: > 100 µM (inactive)
GI50 [31]: > 100 µM (inactive)
GI50 [32]: > 100 µM (inactive)
GI50 [33]: > 100 µM (inactive)
GI50 [34]: > 100 µM (inactive)
GI50 [35]: > 100 µM (inactive)
GI50 [36]: > 100 µM (inactive)
GI50 [37]: > 100 µM (inactive)
GI50 [38]: > 100 µM (inactive)
GI50 [39]: > 100 µM (inactive)

O=c1[nH]c(=O)n(C2OC(CO)C(N(O)Cc3ccc(F)cc3)C2O)cc1Br (centres undefined)
GI50 [1]: > 100 µM (inactive)
GI50 [2]: > 100 µM (inactive)
GI50 [3]: > 100 µM (inactive)
GI50 [40]: > 100 µM (inactive)
GI50 [4]: > 100 µM (inactive)
GI50 [5]: > 100 µM (inactive)
GI50 [6]: > 100 µM (inactive)
GI50 [7]: > 100 µM (inactive)
GI50 [8]: > 100 µM (inactive)
GI50 [9]: > 100 µM (inactive)
GI50 [10]: > 100 µM (inactive)
GI50 [12]: > 100 µM (inactive)
GI50 [13]: > 100 µM (inactive)
GI50 [14]: > 100 µM (inactive)
GI50 [15]: > 100 µM (inactive)
GI50 [16]: > 100 µM (inactive)
GI50 [41]: > 100 µM (inactive)
GI50 [42]: > 100 µM (inactive)
GI50 [43]: > 100 µM (inactive)
GI50 [18]: > 100 µM (inactive)
GI50 [19]: 13.2 µM (inactive)
GI50 [44]: > 100 µM (inactive)
GI50 [45]: > 100 µM (inactive)
GI50 [20]: > 100 µM (inactive)
GI50 [46]: > 100 µM (inactive)
GI50 [21]: > 100 µM (inactive)
GI50 [47]: > 100 µM (inactive)
GI50 [22]: > 100 µM (inactive)
GI50 [24]: > 100 µM (inactive)
GI50 [25]: > 100 µM (inactive)
GI50 [26]: > 100 µM (inactive)
GI50 [48]: > 100 µM (inactive)
GI50 [27]: > 100 µM (inactive)
GI50 [28]: > 100 µM (inactive)
GI50 [29]: > 100 µM (inactive)
GI50 [49]: > 100 µM (inactive)
GI50 [30]: > 100 µM (inactive)
GI50 [31]: > 100 µM (inactive)
GI50 [50]: > 100 µM (inactive)
GI50 [32]: > 100 µM (inactive)
GI50 [51]: > 100 µM (inactive)
GI50 [33]: > 100 µM (inactive)
GI50 [34]: > 100 µM (inactive)
GI50 [35]: > 100 µM (inactive)
GI50 [36]: > 100 µM (inactive)
GI50 [52]: > 100 µM (inactive)
GI50 [37]: > 100 µM (inactive)
GI50 [53]: > 100 µM (inactive)
GI50 [38]: > 100 µM (inactive)
GI50 [39]: > 100 µM (inactive)

CCOC(=O)C(C)Sc1nnc(COc2ccc(Cl)cc2)n1-c1ccccc1 (centres undefined)
GI50 [1]: 14.2 µM (inactive)
GI50 [2]: 18.4 µM (inactive)
GI50 [3]: 22.9 µM (inactive)
GI50 [40]: 16.4 µM (inactive)
GI50 [4]: 16.9 µM (inactive)
GI50 [5]: 27.5 µM (inactive)
GI50 [6]: 26.8 µM (inactive)
GI50 [7]: 14.7 µM (inactive)
GI50 [8]: 29.6 µM (inactive)
GI50 [9]: 26.6 µM (inactive)
GI50 [54]: 25.8 µM (inactive)
GI50 [11]: 13.4 µM (inactive)
GI50 [12]: 21.4 µM (inactive)
GI50 [13]: 24.6 µM (inactive)
GI50 [55]: 49 µM (inactive)
GI50 [14]: 23.6 µM (inactive)
GI50 [15]: 19.1 µM (inactive)
GI50 [16]: 21 µM (inactive)
GI50 [41]: 43.7 µM (inactive)
GI50 [17]: 16.2 µM (inactive)
GI50 [42]: 19.1 µM (inactive)
GI50 [43]: 19.8 µM (inactive)
GI50 [56]: 21.5 µM (inactive)
GI50 [18]: 18.5 µM (inactive)
GI50 [19]: 1.82 µM (inactive)
GI50 [44]: 17.5 µM (inactive)
GI50 [45]: 17.9 µM (inactive)
GI50 [20]: 14.5 µM (inactive)
GI50 [57]: 14.7 µM
GI50 [21]: 22.5 µM (inactive)
GI50 [47]: 14.3 µM (inactive)
GI50 [22]: 23.4 µM (inactive)
GI50 [23]: 21.4 µM (inactive)
GI50 [24]: 18.5 µM (inactive)
GI50 [25]: 18 µM (inactive)
GI50 [26]: 19.5 µM (inactive)
GI50 [48]: 18.3 µM (inactive)
GI50 [27]: 20.8 µM (inactive)
GI50 [28]: 17.3 µM (inactive)
GI50 [29]: 19.3 µM (inactive)
GI50 [49]: 21.4 µM (inactive)
GI50 [30]: 17.4 µM (inactive)
GI50 [31]: 17.7 µM (inactive)
GI50 [32]: 22 µM (inactive)
GI50 [51]: 16.4 µM (inactive)
GI50 [33]: 21.3 µM (inactive)
GI50 [34]: 36.1 µM (inactive)
GI50 [35]: 13.6 µM (inactive)
GI50 [36]: 21.4 µM (inactive)
GI50 [52]: 26.1 µM (inactive)
GI50 [37]: 30.6 µM (inactive)
GI50 [53]: 20.1 µM (inactive)
GI50 [39]: 20.6 µM (inactive)

C[C@]12CC[C@@H]3c4ccc(OC(=O)N(CCCl)CCCl)cc4CC[C@H]3[C@@H]1CC[C@@H]2O [ESTRAMUSTINE]
GI50 [1]: 0.025 µM (active)
GI50 [6]: 0.025 µM (active)
GI50 [9]: 0.025 µM (active)
GI50 [13]: 0.025 µM (active)
GI50 [55]: 6.04 µM (inactive)
GI50 [58]: 0.025 µM (active)
GI50 [41]: 0.025 µM (active)
GI50 [17]: 0.025 µM (active)
GI50 [42]: 0.025 µM (active)
GI50 [43]: 0.025 µM (active)
GI50 [18]: 0.025 µM (active)
GI50 [45]: 0.025 µM (active)
GI50 [20]: 0.025 µM (active)
GI50 [57]: 0.025 µM
GI50 [22]: 0.025 µM (active)
GI50 [23]: 0.025 µM (active)
GI50 [25]: 0.025 µM (active)
GI50 [26]: 1.78 µM (inactive)
GI50 [48]: 0.025 µM (active)
GI50 [27]: 0.025 µM (active)
GI50 [29]: 0.025 µM (active)
GI50 [51]: 2.5 µM (inactive)
GI50 [33]: 0.025 µM (active)
GI50 [34]: 0.025 µM (active)
GI50 [35]: 0.025 µM (active)
GI50 [52]: 0.025 µM (active)
GI50 [53]: 0.025 µM (active)
